Like-named read-outs stand apart in the source and are kept apart here.
Columns and labels:
[1] = system: plasma cholineesterase; assay: Inhibition of plasma cholinesterase activity during patch application in dogs; type: in vivo, Beagle dog; settings: `lead` prototype patch, throughout patch application (96 hours)
Procedure: (§1) Transdermal Bioavailability of MDL 73,745 from a prototype transdermal delivery system in Beagle Dogs
(§2) A `lead` prototype formulation was then evaluted in an in vivo dog model. […] The rate of in vivo transdermal delivery in the dog was calculated to be 7.7 μg/cm^2 /hr.

[2] = Pharmacokinetics and bioavailability of [14C]-MDL 73,745 in Beagle dogs; type: in vivo, Beagle dog; settings: for half-life / clearance / Vd / Cmax / Tmax / bioavailability: dog, in vivo; for Vd: read-out: aVd; for bioavailability: normalized to 2 mg/kg iv
Procedure: Three male Beagle dogs were studied. Animals were fasted 12 h before drug administration but had free access to drinking water. The following single doses of [^14 C]-MDL 73,745 were administered: intravenous (iv): 1 and 2 mg/kg; oral (po): 10 mg/kg; subcutaneous (sc): 10 mg/kg. There was a two week wash-out period between each administration. Drug was administered as a suspension in 0.5% methyl cellulose. […]

[3] = Aqueous solubility of MDL 73,745 in Trycol medium; type: physicochemical; settings: in presence of Trycol (polyethylene glycol 20 Oleyl ether), 5% in 0.9% sodium chloride
Procedure: Dermal elution media: A 5% solution of polyethylene glycol 20 Oleyl ether (Trycol®, Emery) in 0.9% sodium chloride was used as the receptor medium for the modified Franz Diffusion Cells. […] Temperature of the dermal elution media was maintained at 37° C. using a thermostated constant temperature circulating water bath.

[4] = In vivo transdermal delivery of MDL 73,745 from prototype patch in Beagle dogs; design: species or system Beagle dog
Procedure: as §1, §2
Three male Beagle dogs were studied. Animals were fasted 12 h before drug administration but had free access to drinking water. The following single doses of [^14 C]-MDL 73,745 were administered: intravenous (iv): 1 and 2 mg/kg; oral (po): 10 mg/kg; subcutaneous (sc): 10 mg/kg. There was a two week wash-out period between each administration. Drug was administered as a suspension in 0.5% methyl cellulose.
From the equation: S.ko=Cl.Css
S=area (cm^2) of the patch
Css =steady-state concentration (ng/ml)
ko-rate of release from the delivery system per unit surface area can be calculated: […]

[5] = iv, 2 mg/kg, iv 2 mg/kg, dog No. 17
[6] = iv, 2 mg/kg, iv 2 mg/kg, dog No. 18
[7] = iv, 2 mg/kg, iv 2 mg/kg, dog No. 19
[8] = iv, 2 mg/kg, iv 2 mg/kg, mean ± SD of 3 dogs
[9] = po, 10 mg/kg, oral 10 mg/kg, dog No. 17
[10] = po, 10 mg/kg, oral 10 mg/kg, dog No. 18
[11] = po, 10 mg/kg, oral 10 mg/kg, dog No. 19
[12] = po, 10 mg/kg, oral 10 mg/kg, mean ± SD of 3 dogs
[13] = sc, 10 mg/kg, subcutaneous 10 mg/kg, dog No. 17
[14] = sc, 10 mg/kg, subcutaneous 10 mg/kg, dog No. 18
[15] = sc, 10 mg/kg, subcutaneous 10 mg/kg, dog No. 19
[16] = sc, 10 mg/kg, subcutaneous 10 mg/kg, mean ± SD of 3 dogs

Q: Which results are given for `C[Si](C)(C)c1cccc(C(=O)C(F)(F)F)c1` [MDL 73,745, 2,2,2-Trifluoro-1-(3-trimethylsilylphenyl) ethanone]?
A: inhibition of plasma cholineesterase activity [1]: inhibition of plasma cholineesterase activity was achieved; half-life [2, 5]: 18.6 h; clearance ([2]; iv, 2 mg/kg, iv 2 mg/kg, dog No. 17, read-out: Cltot): 78.3 mL/min/kg; Vd [2, 5]: 125 L/kg; half-life [2, 6]: 28.1 h; clearance ([2]; iv, 2 mg/kg, iv 2 mg/kg, dog No. 18, read-out: Cltot): 63.3 mL/min/kg; Vd [2, 6]: 153 L/kg; half-life [2, 7]: 26.2 h; clearance ([2]; iv, 2 mg/kg, iv 2 mg/kg, dog No. 19, read-out: Cltot): 100 mL/min/kg; Vd [2, 7]: 228 L/kg; half-life [2, 8]: 24.3 ± 5 h; clearance ([2]; iv, 2 mg/kg, iv 2 mg/kg, mean ± SD of 3 dogs, read-out: Cltot): 80.5 ± 18.5 mL/min/kg; Vd [2, 8]: 169 ± 53.3 L/kg; clearance ([2]; iv, iv data, read-out: drug clearance): 960 mL/min; Cmax [2, 9]: 15.8 ng/mL; Tmax [2, 9]: 1 h; half-life [2, 9]: 21.4 h; Cmax [2, 10]: 15.3 ng/mL; Tmax [2, 10]: 0.17 h; half-life [2, 10]: 29.5 h; Cmax [2, 11]: 21.8 ng/mL; Tmax [2, 11]: 1 h; half-life [2, 11]: 17.4 h; Cmax [2, 12]: 17.7 ± 3.58 ng/mL; Tmax [2, 12]: 0.72 ± 0.48 h; half-life [2, 12]: 22.8 ± 6.2 h; bioavailability ([2]; po, 10 mg/kg, oral 10 mg/kg, dog No. 17, read-out: F (AUCpo /AUCiv)): 3.4%; bioavailability ([2]; po, 10 mg/kg, oral 10 mg/kg, dog No. 18, read-out: F (AUCpo /AUCiv)): 2.6%; bioavailability ([2]; po, 10 mg/kg, oral 10 mg/kg, dog No. 19, read-out: F (AUCpo /AUCiv)): 4.5%; bioavailability ([2]; po, 10 mg/kg, oral 10 mg/kg, mean ± SD of 3 dogs, read-out: F (AUCpo /AUCiv)): 3.5 ± 1%; bioavailability ([2]; po, 10 mg/kg, oral, 10 mg/kg, read-out: Mean bioavailability (F)): 4%; Cmax [2, 13]: 68.4 ng/mL; Tmax [2, 13]: 6 h; half-life [2, 13]: 12.8 h; Cmax [2, 14]: 42.9 ng/mL; Tmax [2, 14]: 8 h; half-life [2, 14]: 32.7 h; Cmax [2, 15]: 44.7 ng/mL; Tmax [2, 15]: 4 h; half-life [2, 15]: 24.5 h; Cmax [2, 16]: 52 ± 14.2 ng/mL; Tmax [2, 16]: 6 ± 2 h; half-life [2, 16]: 23.3 ± 10 h; bioavailability ([2]; sc, 10 mg/kg, subcutaneous 10 mg/kg, dog No. 17, read-out: F): 41%; bioavailability ([2]; sc, 10 mg/kg, subcutaneous 10 mg/kg, dog No. 18, read-out: F): 25%; bioavailability ([2]; sc, 10 mg/kg, subcutaneous 10 mg/kg, dog No. 19, read-out: F): 36%; bioavailability ([2]; sc, 10 mg/kg, subcutaneous, 10 mg/kg, read-out: Mean bioavailability (F)): 34%; bioavailability ([2]; topical or ocular, 10 mg/kg, dermal patch, 10 mg/kg, read-out: Mean bioavailability (F)): 16%; bioavailability ([2]; topical or ocular, 10 mg/kg, topical dermal cream, 10 mg/kg, read-out: Mean bioavailability (F)): 7%; bioavailability ([2]; topical or ocular, 50 mg/kg, dermal patch, 50 mg/kg, read-out: Mean bioavailability (F)): 12%; bioavailability ([2]; topical or ocular, 50 mg/kg, topical dermal cream, 50 mg/kg, read-out: Mean bioavailability (F)): 3%; Metabolic Index (AUCun /AUCRAD) ([2]; iv 2 mg/kg, dog No. 17): 0.011; Metabolic Index (AUCun /AUCRAD) ([2]; iv 2 mg/kg, dog No. 18): 0.015; Metabolic Index (AUCun /AUCRAD) ([2]; iv 2 mg/kg, dog No. 19): 0.009; Metabolic Index (AUCun /AUCRAD) ([2]; iv 2 mg/kg, mean ± SD of 3 dogs): 0.012 ± 0.003; Metabolic Index (AUCun /AUCRAD) ([2]; oral 10 mg/kg, dog No. 17): 0.0006; Metabolic Index (AUCun /AUCRAD) ([2]; oral 10 mg/kg, dog No. 18): 0.0011; Metabolic Index (AUCun /AUCRAD) ([2]; oral 10 mg/kg, dog No. 19): 0.0006; Metabolic Index (AUCun /AUCRAD) ([2]; oral 10 mg/kg, mean ± SD of 3 dogs): 0.0008 ± 0.0003; Metabolic Index (AUCun /AUCRAD) ([2]; subcutaneous 10 mg/kg, dog No. 17): 0.006; Metabolic Index (AUCun /AUCRAD) ([2]; subcutaneous 10 mg/kg, dog No. 18): 0.007; Metabolic Index (AUCun /AUCRAD) ([2]; subcutaneous 10 mg/kg, dog No. 19): 0.004; Metabolic Index (AUCun /AUCRAD) ([2]; subcutaneous 10 mg/kg, mean ± SD of 3 dogs): 0.006 ± 0.002; aqueous solubility [3]: increases the aqueous solubility; rate of in vivo transdermal delivery ([4]; `lead` prototype patch, dog, calculated): 7.7 μg/cm^2 /hr; plasma level ([4]; `lead` prototype patch, throughout patch application (96 hours)): constant, steady state plasma level; ko, rate of release from the delivery system per unit surface area ([4]; patch 70% w/w MDL 73,745 in DuroTak 80-1074, 5 mg/cm^2, same for both doses, from S.ko=Cl.Css): 7.7 μg/hr/cm^2

Reference: patent publication US5693668A, “Acetylcholinesterase inhibitors” (priority 1989, dated 1997)
